# Assay results published in PMC12669040, “Tumour-specific STING agonist synthesis via a two-component prodrug system” (Nature Chemistry, 2025).
# Where “and” joins values, the source holds several entries; their conditions need not be identical. Equal values may be shown once. Read-outs that look alike come from different tables or passages of the source.
# How the values were obtained:
# [1] = target: T1, wild-type human STING LBD (hSTINGwt 138-379) (Homo sapiens, UniProt Q86WV6, H232R); experiment: Isothermal titration calorimetry (ITC), reverse titration; type: binding
# T1 construct: SUMO (N, cleaved yes); made in house; host or cells: Escherichia coli BL21 (DE3)
# T1 sequence (Q86WV6 138-379 H232R): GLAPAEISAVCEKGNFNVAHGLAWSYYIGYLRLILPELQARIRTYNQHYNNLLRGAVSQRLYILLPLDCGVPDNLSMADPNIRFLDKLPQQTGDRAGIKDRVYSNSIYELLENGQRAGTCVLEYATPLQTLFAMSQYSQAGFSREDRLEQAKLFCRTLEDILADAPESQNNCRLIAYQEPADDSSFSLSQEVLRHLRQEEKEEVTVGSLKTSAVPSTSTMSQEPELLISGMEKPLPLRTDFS
# Protocol: Escherichia coli BL21 (DE3) (Thermo Scientific EC0114) was transformed with a pET28a plasmid (Genscript) harbouring the codon-optimized sequence of SUMO-hSTINGwt (aa138-379). Transformed BL21 cells were inoculated into LB medium (50 µg ml^−1 kanamycin) and incubated at 180 rpm, 37 °C overnight. The overnight culture was then diluted (1:100 dilution) in 2× YT medium (50 µg ml^−1 kanamycin) and incubated at 180 rpm, 37 °C until optical density at 600 nm (OD600) reached 0.6 (approximately 3 h). The bacterial culture was then cooled to 16 °C, induced with 0.5 mM isopropyl 1-thio-D-galactopyranoside and incubated overnight at 180 rpm, 16 °C. The bacterial cells were pelleted at 4,000g for 30 min, resuspended in 20 ml of lysis buffer (25 mM HEPES pH 7.5, 150 mM NaCl, 20 mM imidazole and 2 mM TCEP supplied with 2 tablets of cOmplete mini EDTA-free protease inhibitors) and disrupted by sonication on ice. The total lysate was clarified by centrifugation at 22,000g for 30 min. The supernatant was collected and filtered through a 0.45-µm filter (Millipore SLHAR33SS). The clarified lysate was then incubated on a roller with 10 ml bed volume of Ni-NTA resin (Thermo Scientific 88223) at 4 °C for 1 h. The Ni-NTA resin was then packed in a column, flushed with 20 ml of wash buffer (25 mM HEPES pH 7.5, 150 mM NaCl and 20 mM imidazole) and eluted with 40 ml of elution buffer (25 mM HEPES pH 8.0, 150 mM NaCl and 250 mM imidazole). The eluted protein was concentrated to approximately 5 ml (Millipore Amicon 10 kDa molecular weight cut-off (MWCO)) and buffer-exchanged into storage buffer (25 mM HEPES pH 7.5 and 150 mM NaCl). TCEP was then added to a final concentration of 2 mM, and 250 units of SUMO protease (Merck SAE0067) were added. The cleavage reaction mixture was left to stand at 4 °C overnight until LC–MS analysis indicated the completion of the cleavage reaction. The cleavage mixture was incubated with 10 ml bed volume of Ni-NTA resin on a roller at 4 °C for 1 h and packed in a disposable column. The flowthrough was collected, and the resin was further flushed with 20 ml of wash buffer. The eluted fractions were combined, concentrated and further purified by size-exclusion chromatography (Cytiva, Superdex 200 Increase 10/300 GL). The purified protein in storage buffer was concentrated to 330 µM (dimer concentration) as determined by bicinchoninic acid (BCA) assay, aliquoted, flash-frozen in liquid nitrogen and stored at −80 °C for future use.
# The binding constants of purified dimers were measured by ITC (Malvern Panalytical AutoITC200) in a reverse-titration format. Stock DMSO solutions of each dimer were dissolved in titration buffer (25 mM HEPES pH 7.5 and 150 mM NaCl) to a final concentration of 25 µM and added to the titration cell. The syringe was filled with 250 µM of purified STING in a matching buffer. Titration was performed at 25 °C with the following parameters: 750 rpm stirring, 0.2 µl initial injection followed by 2-µl injections of the […] every 120 s. Titration of STING protein into blank buffer was separately performed and subtracted from the raw data before the analysis. The background-subtracted titration curves were fitted with the built-in Origin software using the standard one-site model.
# Extended Data Fig. 2 Isothermal titration calorimetry (ITC) data for binding constant measurements. Purified hSTINGwt138-379 (250 μM of homodimer) was titrated into each dimer (25 μM) dissolved in a matching buffer (25 mM HEPES pH 7.5, 150 mM NaCl) at 25 °C and 750 rpm stirring. Binding constants were reported as the average from duplicate measurements.
# [2] = system: THP-1 Lucia ISG cells (interferon pathway); experiment: Potency test of purified dimers on THP-1 Lucia ISG reporter cells; type: cell-based, human; settings: for Raw readings: replicates 1-3
# Protocol: Cells were pelleted (150g, 10 min) and resuspended in the growth medium (40% conditioned) at a density of 1 × 10^6 cells ml^−1. The cell suspension was dispensed (50 µl each well) into a lidded white 96-well plate (BrandTech 781665). Test compounds or DMSO control were diluted in the growth medium and sterilized by filtering through 0.22-µm polyethersulfone (PES) membranes (Merck SLGP033RS). […] Upon cooling down to room temperature, 50 µl of reconstituted luciferase substrate (InvivoGen QUANTI-Luc) was added to each well via the injector of the plate reader (Molecular Devices SpectraMax i3x), and the luminescence output was recorded (4 s delay, 0.1 s integration). Raw signals were divided by the averaged signal of the DMSO-treated control wells and reported in relative luminescence unit (RLU). The dose–response curve of each replicate was fitted individually using the standard 4PL model (GraphPad Prism). The EC50 value of each compound was averaged from three independent experiments and reported as mean ± s.e.m.
# [3] = system: THP-1 cells; experiment: Dilution limits of N1/E4 combination to activate THP-1 cells (IFN-β ELISA); settings: IFN-β secretion, 6 h, single component
# [4] = substrate: COc1cc2sc(C(=O)CCC(=O)O)cc2cc1SCO[C@@H]1O[C@H](C(=O)O)[C@@H](O)[C@H](O)[C@H]1O; experiment: Michaelis–Menten kinetics of β-GlcA-N1 cleavage; type: biochemical, human; settings: other: 37 °C, 0.2 M sodium acetate pH 4.5, 67 nM enzyme
# Protocol: Human β-glucuronidase (AcroBiosystems BEB-H52H3) was reconstituted in deionized water to a concentration of 1 mg ml^−1. The enzyme stock solution was further diluted in assay buffer (0.2 M acetate pH 4.5) to 10 μg ml^−1 (134 nM). β-GlcA-N1 (50 mM DMSO stock) was twofold serially diluted in assay buffer from 5 to 0.078 mM. The enzyme solution and diluted β-GlcA-N1 were incubated in a transparent 96-well plate and incubated at 37 °C until thermo equilibrium was reached. Then, 100 µl of β-GlcA-N1 at various concentrations was mixed with 100 µl of β-glucuronidase using a multichannel pipette, resulting in the following initial condition: [β-GlcA-N1] = 2.5, 1.25, 0.62, 0.31, 0.16, 0.08 and 0.04 mM; [β-glucuronidase] = 67 nM; 5% DMSO (v/v). The reactions were incubated at 37 °C. At 30-min and 60-min timepoints, a 50-µl portion was withdrawn from each reaction mixture and mixed with 50 µl of quenching buffer (1 M sodium carbonate, 1 mM TCEP). The concentration of liberated N1 was determined by comparing the absorbance of each quenched reaction at 410 nm to a calibration curve of purified N1. Reaction velocities were calculated from the slopes of [N1] versus time plots. The velocity versus [β-GlcA-N1] plot was then fitted with the standard Michaelis–Menten kinetic model (GraphPad Prism).
# [5] = target: the molecule itself; experiment: crystal structure; STING LBD (247 µM) with compound D5 (2.2 mM), sitting drops, 20 °C; 2.31 Å
molecule,measurement,setting,value
COc1cc2sc(C(=O)CCC(=O)O)cc2cc1CSCc1cc2cc(C(=O)CCC(=O)O)sc2cc1OC [Compound D7],Kd,"[1]; 25 °C, average of duplicate measurements, read-out: Kd hSTINGwt (binding constant, ITC)",12 nM
same,Kd,"[1]; ITC run _01, read-out: Kd",15 nM
same,Kd,"[1]; ITC run _02, read-out: Kd",8 nM
same,Raw readings,[2]; Conc 0.508053 nM,1113 RLU and 627 RLU and 644 RLU
same,Raw readings,[2]; Conc 1.52416 nM,1094 RLU and 992 RLU and 1053 RLU
same,Raw readings,[2]; Conc 4.57247 nM,783 RLU and 1083 RLU and 911 RLU
same,Raw readings,[2]; Conc 13.7174 nM,1811 RLU and 3669 RLU and 2075 RLU
same,Raw readings,[2]; Conc 41.1523 nM,26401 RLU and 56159 RLU and 31852 RLU
same,Raw readings,[2]; Conc 123.457 nM,95964 RLU and 153788 RLU and 83328 RLU
same,Raw readings,[2]; Conc 370.37 nM,127337 RLU and 208679 RLU and 128863 RLU
same,Raw readings,[2]; Conc 1111.11 nM,148790 RLU and 255878 RLU and 161073 RLU
same,Raw readings,[2]; Conc 3333.33 nM,168239 RLU and 288236 RLU and 165803 RLU
same,Raw readings,[2]; Conc 10000 nM,170045 RLU and 271936 RLU and 154582 RLU
same,fold induction at 0.00152416 µM,"[2]; Homo sapiens, THP1-Lucia ISG, 24 h, Concentration 1.52416 nM, three replicates, read-out: Processed reporter response per replicate (reading relative to DMSO)",1.5
same,fold induction at 0.00457247 µM,"[2]; Homo sapiens, THP1-Lucia ISG, 24 h, Concentration 4.57247 nM, three replicates, read-out: Processed reporter response per replicate (reading relative to DMSO)",1.07
same,fold induction at 0.0137174 µM,"[2]; Homo sapiens, THP1-Lucia ISG, 24 h, Concentration 13.7174 nM, three replicates, read-out: Processed reporter response per replicate (reading relative to DMSO)",2.48
same,fold induction at 0.0411523 µM,"[2]; Homo sapiens, THP1-Lucia ISG, 24 h, Concentration 41.1523 nM, three replicates, read-out: Processed reporter response per replicate (reading relative to DMSO)",36.1
same,fold induction at 0.123457 µM,"[2]; Homo sapiens, THP1-Lucia ISG, 24 h, Concentration 123.457 nM, three replicates, read-out: Processed reporter response per replicate (reading relative to DMSO)",131
same,fold induction at 0.37037 µM,"[2]; Homo sapiens, THP1-Lucia ISG, 24 h, Concentration 370.37 nM, three replicates, read-out: Processed reporter response per replicate (reading relative to DMSO)",174
same,fold induction at 1.11111 µM,"[2]; Homo sapiens, THP1-Lucia ISG, 24 h, Concentration 1111.11 nM, three replicates, read-out: Processed reporter response per replicate (reading relative to DMSO)",204
same,fold induction at 3.33333 µM,"[2]; Homo sapiens, THP1-Lucia ISG, 24 h, Concentration 3333.33 nM, three replicates, read-out: Processed reporter response per replicate (reading relative to DMSO)",230
same,fold induction at 10 µM,"[2]; Homo sapiens, THP1-Lucia ISG, 24 h, Concentration 10000 nM, three replicates, read-out: Processed reporter response per replicate (reading relative to DMSO)",233
same,EC50,"[2]; Homo sapiens, THP1-Lucia ISG, 24 h, three biological replicates, mean ± s.d., read-out: EC50 THP-1",119 ± 2 nM
COc1cc2sc(C(=O)CCC(=O)O)cc2cc1S [Compound N1],concentration up to which no STING activation was shown (alone),[3],> 64 µM
"human β-glucuronidase (Homo sapiens) (protein, purchased AcroBiosystems BEB-H52H3) LQGGMLYPQESPSRECKELDGLWSFRADFSDNRRRGFEEQWYRRPLWESGPTVDMPVPSSFNDISQDWRLRHFVGWVWYEREVILPERWTQDLRTRVVLRIGSAHSYAIVWVNGVDTLEHEGGYLPFEADISNLVQVGPLPSRLRITIAINNTLTPTTLPPGTIQYLTDTSKYPKGYFVQNTYFDFFNYAGLQRSVLLYTTPTTYIDDITVTTSVEQDSGLVNYQISVKGSNLFKLEVRLLDAENKVVANGTGTQGQLKVPGVSLWWPYLMHERPAYLYSLEVQLTAQTSLGPVSDFYTLPVGIRTVAVTKSQFLINGKPFYFHGVNKHEDADIRGKGFDWPLLVKDFNLLRWLGANAFRTSHYPYAEEVMQMCDRYGIVVIDECPGVGLALPQFFNNVSLHHHMQVMEEVVRRDKNHPAVVMWSVANEPASHLESAGYYLKMVIAHTKSLDPSRPVTFVSNSNYAADKGAPYVDVICLNSYYSWYHDYGHLELIQLQLATQFENWYKKYQKPIIQSEYGAETIAGFHQDPPLMFTEEYQKSLLEQYHLGLDQKRRKYVVGELIWNFADFMTEQSPTRVLGNKKGIFTRQRQPKSAAFLLRERYWKIANETRYPHSVAKSQCLENSLFT",Km,[4],319 µM
same,kcat,[4],0.48 s⁻¹
same,kcat/Km,[4],1500 M⁻¹ s⁻¹
"R232-STING 138-379 (ligand-binding domain of human STING) (domain or fragment, UniProt Q86WV6 138-379, looked up, chains A and B form the dimer; also called STING LBD; hSTING LBD; source: E. coli BL21(DE3), purified (Ni-NTA, TEV cleavage, reverse Ni-NTA, gel filtration)) GLAPAEISAVCEKGNFNVAHGLAWSYYIGYLRLILPELQARIRTYNQHYNNLLRGAVSQRLYILLPLDCGVPDNLSMADPNIRFLDKLPQQTGDHAGIKDRVYSNSIYELLENGQRAGTCVLEYATPLQTLFAMSQYSQAGFSREDRLEQAKLFCRTLEDILADAPESQNNCRLIAYQEPADDSSFSLSQEVLRHLRQEEKEEVTVGSLKTSAVPSTSTMSQEPELLISGMEKPLPLRTDFS",binding result,[5],binds
